Reference: US20120029187A1, “HALOALKYLSULFONANILIDE DERIVATIVE” (Nissan Chemical Industries, Ltd., priority 2009, published 2012)

What was measured:
Type in all cases: in vivo
barnyardgrass [1] = test: Comparative Example 1: herbicidal effects in preemergence treatment on barnyardgrass under submerged conditions; settings: applied to water surface on the day of seeding, three weeks after application
Text: Comparative Example 1 Test on the Herbicidal Effects in Preemergence Treatment on Barnyardgrass Under Submerged Conditions Alluvial soil was put in 1/30000-are styrol cups and admixed with water so that it was submerged at a depth of 4 cm. In each cup, seeds of barnyardgrass were sown, and on the same day as the seeding, emulsifiable concentrates containing compounds of the present invention formulated in accordance with Formulation Example 2 were applied to the water surfaces at predetermined doses after diluted with water. The cups were placed in a greenhouse at 25 to 30° C. to grow the plants. Three weeks after the application, the herbicidal effects against barnyardgrass were determined on the following evaluation scale. The symbol A in the table means barnyardgrass.

barnyardgrass [2] = test: Comparative Example 2: herbicidal effects on barnyardgrass during the vegetation period under submerged conditions; settings: applied to water surface at the 2- or 2.5-leaf stage, three weeks after application
Description: Comparative Example 2 Test on the Herbicidal Effects on Barnyardgrass During the Vegetation Period Under Submerged Conditions Alluvial soil was put in 1/30000-are styrol cups and admixed with water so that it was submerged at a depth of 4 cm. In each cup, seeds of barnyardgrass were sown, and the cups were placed in a greenhouse at 25 to 30° C. to grow the plants. When the barnyardgrass reached the 2- or 2.5-leaf stage, emulsifiable concentrates containing compounds of the present invention and the comparative compounds formulated in accordance with Formulation Example 2 were applied to the water surfaces at predetermined doses after diluted with water. Three weeks after the application, the herbicidal effects were determined on the same evaluation scale as in Test Example 1. The symbol A in the table is the same as defined above.

barnyardgrass [3] = test: Test Example 1: herbicidal effects in preemergence treatment under submerged conditions; settings: dose 2.52 g/a
In short: (§1)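 Scoring 0 (<5% mortality) to 5 (≥90%) was done three weeks after preemergence application to the water surface of submerged (4 cm) alluvial soil, doses given as g per are. Weeds were seeded and 2.5-leaf rice transplanted on the treatment day; greenhouse at 25–30 °C.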

bulrush [4] = test: as above; settings: dose 2.52 g/a
In short: as §1

ducksalad [5] = test: as above; settings: dose 2.52 g/a
In short: as §1

transplanted rice = test: Test Example 1: preemergence treatment under submerged conditions, effect on crop; settings: dose 2.52 g/a
In short: as §1

barnyardgrass [6] = test: Test Example 2: herbicidal effects during the vegetation period under submerged conditions; settings: treatment during the vegetation period under submerged conditions; dose 2.52 g/a
In short: (§2)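 Barnyardgrass, bulrush and ducksalad were co-sown in alluvial soil flooded to 4 cm and grown in a greenhouse at 25 to 30° C. At the 1- or 2-leaf stage, water-diluted emulsifiable concentrates went onto the water surface at set doses (g/a). Herbicidal effect was scored three weeks later on a graded scale.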

bulrush [7] = test: as above; settings: treatment during the vegetation period under submerged conditions; dose 2.52 g/a
In short: as §2

ducksalad [8] = test: as above; settings: treatment during the vegetation period under submerged conditions; dose 2.52 g/a
In short: as §2

Italian ryegrass [9] = test: Test Example 3: herbicidal effects in soil treatment; settings: dose 3.2 g/a
In short: (§3)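 Seeds were sown in sterilized diluvial soil and covered with about 1.5 cm of soil. Compounds, formulated as emulsifiable concentrates and diluted with water, were sprayed evenly over the soil surface at set doses in g/a. Herbicidal effect was scored on a rating scale three weeks later.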

barnyardgrass [10] = test: as above; settings: dose 3.2 g/a
In short: as §3

beadstraw [11] = test: as above; settings: dose 3.2 g/a
In short: as §3

common chickweed [12] = test: as above; settings: dose 3.2 g/a
In short: as §3

common lambsquater [13] = test: as above; settings: dose 3.2 g/a
In short: as §3

common ragweed [14] = test: as above; settings: dose 3.2 g/a
In short: as §3

giant foxtail [15] = test: as above; settings: dose 3.2 g/a
In short: as §3

large crabgrass [16] = test: as above; settings: dose 3.2 g/a
In short: as §3

posumbu knotweed [17] = test: as above; settings: dose 3.2 g/a
In short: as §3

redroot pigweed [18] = test: as above; settings: dose 3.2 g/a
In short: as §3

velvetleaf [19] = test: as above; settings: dose 3.2 g/a
In short: as §3

water foxtail [20] = test: as above; settings: dose 3.2 g/a
In short: as §3

wild oat [21] = test: as above; settings: dose 3.2 g/a
In short: as §3

Italian ryegrass [22] = test: Test Example 4: herbicidal effect in foliage treatment; settings: dose 3.2 g/a, three weeks after the application
In short: (§4)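 Post-emergence foliar spray of water-diluted emulsifiable concentrate at predetermined doses (g per are), applied to plants 14 days after sowing in sterile diluvial soil (greenhouse, 25 to 30° C). Visual scale rating of effect taken 3 weeks later.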

barnyardgrass [23] = test: as above; settings: dose 3.2 g/a, three weeks after the application
In short: as §4

beadstraw [24] = test: as above; settings: dose 3.2 g/a, three weeks after the application
In short: as §4

common chickweed [25] = test: as above; settings: dose 3.2 g/a, three weeks after the application
In short: as §4

common lambsquater [26] = test: as above; settings: dose 3.2 g/a, three weeks after the application
In short: as §4

common ragweed [27] = test: as above; settings: dose 3.2 g/a, three weeks after the application
In short: as §4

giant foxtail [28] = test: as above; settings: dose 3.2 g/a, three weeks after the application
In short: as §4

large crabgrass [29] = test: as above; settings: dose 3.2 g/a, three weeks after the application
In short: as §4

posumbu knotweed [30] = test: as above; settings: dose 3.2 g/a, three weeks after the application
In short: as §4

redroot pigweed [31] = test: as above; settings: dose 3.2 g/a, three weeks after the application
In short: as §4

velvetleaf [32] = test: as above; settings: dose 3.2 g/a, three weeks after the application
In short: as §4

water foxtail [33] = test: as above; settings: dose 3.2 g/a, three weeks after the application
In short: as §4

wild oat [34] = test: as above; settings: dose 3.2 g/a, three weeks after the application
In short: as §4

CC(C)COC(O)N(c1ccccc1CN1CCCOC1=O)S(=O)(=O)C(F)(F)F (stereo not drawn) [a, reference compound]
herbicidal effect, A (barnyardgrass) (barnyardgrass [1]; dose 0.16 g/a): 0 (mortality of less than 5% (almost ineffective)) | herbicidal effect, A (barnyardgrass) (barnyardgrass [1]; dose 0.64 g/a): 5 (mortality of 90% or above (nearly complete death)) | herbicidal effect, A (barnyardgrass) (barnyardgrass [1]; dose 2.52 g/a): 5 (mortality of 90% or above (nearly complete death)) | herbicidal effect, A (barnyardgrass) (barnyardgrass [2]; dose 0.16 g/a): 0 (mortality of less than 5% (almost ineffective)) | herbicidal effect, A (barnyardgrass) (barnyardgrass [2]; dose 0.64 g/a): 0 (mortality of less than 5% (almost ineffective)) | herbicidal effect, A (barnyardgrass) (barnyardgrass [2]; dose 2.52 g/a): 5 (mortality of 90% or above (nearly complete death))

CC(C)COC(=O)N(c1ccccc1CN1OCCCC1=O)S(=O)(=O)C(F)(F)F [III-15]
A: barnyardgrass, herbicidal effect (evaluation scale 0-5) (barnyardgrass [3]): 5 (mortality of 90% or above (nearly complete death)) | B: bulrush, herbicidal effect (evaluation scale 0-5) (bulrush [4]): 5 (mortality of 90% or above (nearly complete death)) | C: ducksalad, herbicidal effect (evaluation scale 0-5) (ducksalad [5]): 5 (mortality of 90% or above (nearly complete death)) | a: transplanted rice, effect on crop (evaluation scale 0-5) (transplanted rice): 2 (mortality of at least 20% and less than 40%) | A: barnyardgrass, herbicidal effect (evaluation scale 0-5) (barnyardgrass [6]): 5 (mortality of 90% or above (nearly complete death)) | B: bulrush, herbicidal effect (evaluation scale 0-5) (bulrush [7]): 5 (mortality of 90% or above (nearly complete death)) | C: ducksalad, herbicidal effect (evaluation scale 0-5) (ducksalad [8]): 5 (mortality of 90% or above (nearly complete death)) | herbicidal effect, H: Italian ryegrass (Italian ryegrass [9]): 3 (mortality of at least 40% and less than 70%) | herbicidal effect, A: barnyardgrass (barnyardgrass [10]): 5 (mortality of 90% or above (nearly complete death)) | herbicidal effect, O: beadstraw (beadstraw [11]): 0 (mortality of less than 5% (almost ineffective)) | herbicidal effect, N: common chickweed (common chickweed [12]): 4 (mortality of at least 70% and less than 90%) | herbicidal effect, L: common lambsquater (common lambsquater [13]): 0 (mortality of less than 5% (almost ineffective)) | herbicidal effect, J: common ragweed (common ragweed [14]): 3 (mortality of at least 40% and less than 70%) | herbicidal effect, E: giant foxtail (giant foxtail [15]): 5 (mortality of 90% or above (nearly complete death)) | herbicidal effect, D: large crabgrass (large crabgrass [16]): 5 (mortality of 90% or above (nearly complete death)) | herbicidal effect, M: posumbu knotweed (posumbu knotweed [17]): 0 (mortality of less than 5% (almost ineffective)) | herbicidal effect, K: redroot pigweed (redroot pigweed [18]): 2 (mortality of at least 20% and less than 40%) | herbicidal effect, I: velvetleaf (velvetleaf [19]): 4 (mortality of at least 70% and less than 90%) | herbicidal effect, G: water foxtail (water foxtail [20]): 5 (mortality of 90% or above (nearly complete death)) | herbicidal effect, F: wild oat (wild oat [21]): 0 (mortality of less than 5% (almost ineffective)) | H: Italian ryegrass, herbicidal effect (Italian ryegrass [22]): 3 (mortality of at least 40% and less than 70%) | A: barnyardgrass, herbicidal effect (barnyardgrass [23]): 5 (mortality of 90% or above (nearly complete death)) | O: beadstraw, herbicidal effect (beadstraw [24]): 3 (mortality of at least 40% and less than 70%) | N: common chickweed, herbicidal effect (common chickweed [25]): 3 (mortality of at least 40% and less than 70%) | L: common lambsquater, herbicidal effect (common lambsquater [26]): 0 (mortality of less than 5% (almost ineffective)) | J: common ragweed, herbicidal effect (common ragweed [27]): 4 (mortality of at least 70% and less than 90%) | E: giant foxtail, herbicidal effect (giant foxtail [28]): 4 (mortality of at least 70% and less than 90%) | D: large crabgrass, herbicidal effect (large crabgrass [29]): 5 (mortality of 90% or above (nearly complete death)) | M: posumbu knotweed, herbicidal effect (posumbu knotweed [30]): 0 (mortality of less than 5% (almost ineffective)) | K: redroot pigweed, herbicidal effect (redroot pigweed [31]): 2 (mortality of at least 20% and less than 40%) | I: velvetleaf, herbicidal effect (velvetleaf [32]): 4 (mortality of at least 70% and less than 90%) | G: water foxtail, herbicidal effect (water foxtail [33]): 5 (mortality of 90% or above (nearly complete death)) | F: wild oat, herbicidal effect (wild oat [34]): 0 (mortality of less than 5% (almost ineffective))
